# Measurements: patent US10004730B2, “Small molecules targeting androgen receptor nuclear localization and/or level in prostate cancer” (University of Pittsburgh-Of the Commonwealth System of …, priority 2011, dated 2018)
# Assays:
# PC3 cells = test: Cell survival, crystal violet staining, PC3; assay type: cell-based; details: 48 hrs
# Experimental: FIGS. 8A and 8B. Effect of SID 14730725 and SID 3712502 on survival of PC3 (FIG. 8A) and C4-2 cells (FIG. 8B). PC3 or C4-2 cells were plated in 12-well plates at 2,500 cell per well in RPMI 1640 complete medium. After 24 hrs, the cells were treated with SID 14730725 or SID 3712502 at the indicated concentrations for 48 hrs. The wells were washed with PBS thrice and fixed in 0.5% crystal Violet in methanol. C=control; treated with vehicle DMSO.
# [1] = system: C4-2, LNCaP, LAPC-4, PC3 and COS-1 cell lines; test: Cytotoxicity in a panel of cultured cell lines; assay type: cell-based
# Experimental: The screen identified ˜30 candidate small molecules that can disrupt GFP-AR nuclear localization in the C4-2 stably-transfected cell line. They were tested further to verify they can indeed disrupt AR nuclear localization in C4-2 cells and to determine whether the inhibition of nuclear localization of GFP-AR is mediated through a general inhibition of nuclear import machinery. […] Also, the candidate small molecules were tested for their cytotoxicity using a panel of cultured cell lines.
# Once the candidate small molecules were identified, they were tested if they indeed can inhibit androgen-independent nuclear localization of GFP-AR and endogenous AR in the C4-2 cells. Also, these agents were tested to see if they are cytotoxic in several different cell lines, including the AR-positive prostate cancer cell lines C4-2, LNCaP, LAPC-4 and AR-negative cell lines PC3 and COS-1 (FIG. 8). These assays led to the identification of 3 agents that specifically target androgen-independent AR nuclear localization in prostate cancer cells and have minimal cytotoxicity on other types of cells.
# [2] = system: castration resistant 22Rv1 xenograft tumors; test: 22Rv1 xenograft tumors in castrated SCID mice; assay type: in vivo; details: i.p. 25 mg/kg every other day
# Experimental: FIGS. 15A-B. SID 3712502 inhibited the growth of castration resistant 22Rv1 xenograft tumors (FIG. 15A), but not PC3 tumors (FIG. 15B). 22Rv1 or PC3 tumors were established by s.c. injection of 1×10^6 cells into young adult male SCID mice. SCID mice were castrated and randomized when tumor volume reached ˜400 uL. Mice received i.p. delivery of SID 3712502 (25 mg/kg body weight) or vehicle control EPL every other day, beginning 4 days after castration (injection indicated by arrows). Each group consisted of 10 mice for 22Rv1, and 8 mice for PC3 tumors. Tumor volumes were measured using micro-calipers and calculated using the formula (length×width^2)/2. Black and red lines represent data from the animals treated with vehicle (C) and SID 3712502 (SID), respectively. P value was calculated using a two-way ANOVA with the Bonferrroni correction (GraphPad). Error bars=SEM. **p<0.01.
# [3] = system: AR transactivation of PSA-luciferase reporter; test: PSA-luciferase reporter, full-length AR, C4-2 cells; assay type: cell-based; details: 24 hours
# Experimental: (§1) FIGS. 13A-C. Effect of SID 3712502 on the expression of AR and PSA in 22Rv1 (FIG. 13A) cells. […] The cells in RPMI 1640 complete medium were treated with SID 3712502 or vehicle DMSO at the indicated concentrations (uM) for 48 h. The cells were then harvested in RIPA buffer for Western blot analysis using antibodies for AR, PSA, and GAPDH. GAPDH was included as a loading control. FIG. 13B. SID 3712502 inhibits AR transactivation of PSA-luciferase reporter. C4-2 cells were transfected with PSA6.1-Luc, GFP-AR, and pRL-CMV and then treated with indicated doses of SID 3712502 for 24 hours. FIG. 13C. SID 3712502 inhibits transactivation of PSA-luciferase reporter by AR(1-665), which lacks LBD. PC3 cells were transfected with GFP-NAR and PSA6.1 Luc overnight prior to treatment with 10 μM SID 3712502 (SID) or DMSO (C) for 24 hours. For luciferase assays, cells were lysed with passive lysis buffer (Promega) and both Firefly and Renilla luciferase activities were read using a Dual-Luciferase Reporter Assay kit (Promega) on a LmaxII384 luminometer (Molecular Devices). Firefly luciferase values were normalized to Renilla (pRL-CMV) or protein of cell lysates. Plotted values represent averaged normalized Firefly luciferase activities, each performed in triplicate, relative to DMSO control. One-way ANOVA was performed with a Bonferroni's Multiple Comparison posttest *** p<0.0001 (C). […]
# PSA = test: Western blot of AR target PSA in prostate cancer cells; assay type: cell-based
# Experimental: (§2) FIGS. 10A and 10B. Down-regulation of the expression of AR and its downstream target PSA by SID 3712502 in C4-2 (FIG. 10A) and LNCaP (FIG. 10B) cells. Cells in RPMI 1640 complete medium were treated with SID 3712502 or vehicle DMSO at the indicated concentrations for 48 hrs. The cells were then harvested in RIPA buffer for Western blot analysis using antibodies for AR, PSA, and GAPDH. GAPDH was included as a loading control.
# as §1, with “PC3 cells were transfected with GFP-NAR and PSA6.1 Luc overnight prior to treatment with 10 μM SID 3712502 (SID) or DMSO (C) for 24 hours.” left out, “Devices).” for “Devices). Firefly luciferase values were normalized to Renilla (pRL-CMV) or protein of cell lysates. Plotted values represent averaged normalized Firefly luciferase activities, each performed in triplicate, relative to DMSO control. One-way ANOVA was performed with a Bonferroni's Multiple Comparison posttest *** p<0.0001 (C).”
# AR(1-665) = test: PSA-luciferase reporter, AR(1-665) lacking LBD, PC3 cells; assay type: cell-based; details: 10 μM, 24 hours
# Experimental: as §1
# C4-2 cells = test: BrdU incorporation, C4-2; assay type: cell-based; details: C4-2, 48 hrs
# Experimental: (§3) FIGS. 14A-F. Effect of SID 3712502 at indicated concentrations on BrdU incorporation in cultured AR-positive LNCaP (FIG. 14A), C4-2 (FIG. 14B), 22Rv1 (FIG. 14C), LAPC4 (FIG. 14D) cells, and AR-negative DU145 (FIG. 14E) and PC3 (FIG. 14F) cells. Cells were plated in 12-well plates at 2,500 cell per well in RPMI 1640 complete medium. After 24 hrs, the cells were treated with SID 3712502 at the indicated concentrations for 48 hrs and BrdU incorporation was assayed according to manufacturer's instructions (Invitrogen BrdU staining kit; catalog #: 93-3943). The percentage of BrdU-positive cells was determined and then normalized to generate relative BrdU index. Ctrl=DMSO control.
# AR = test: Western blot of AR protein in prostate cancer cells; assay type: cell-based; details: for endogenous AR level (degradation): 48 hrs
# Experimental: as §2
# FIGS. 13A-C. Effect of SID 3712502 on the expression of AR and PSA in 22Rv1 (FIG. 13A) cells. […] The cells in RPMI 1640 complete medium were treated with SID 3712502 or vehicle DMSO at the indicated concentrations (uM) for 48 h. The cells were then harvested in RIPA buffer for Western blot analysis using antibodies for AR, PSA, and GAPDH. GAPDH was included as a loading control. FIG. 13B. SID 3712502 inhibits AR transactivation of PSA-luciferase reporter. C4-2 cells were transfected with PSA6.1-Luc, GFP-AR, and pRL-CMV and then treated with indicated doses of SID 3712502 for 24 hours. FIG. 13C. SID 3712502 inhibits transactivation of PSA-luciferase reporter by AR(1-665), which lacks LBD. PC3 cells were transfected with GFP-NAR and PSA6.1 Luc overnight prior to treatment with 10 μM SID 3712502 (SID) or DMSO (C) for 24 hours. For luciferase assays, cells were lysed with passive lysis buffer (Promega) and both Firefly and Renilla luciferase activities were read using a Dual-Luciferase Reporter Assay kit (Promega) on a LmaxII384 luminometer (Molecular Devices). Firefly luciferase values were normalized to Renilla (pRL-CMV) or protein of cell lysates. Plotted values represent averaged normalized Firefly luciferase activities, each performed in triplicate, relative to DMSO control. One-way ANOVA was performed with a Bonferroni's Multiple Comparison posttest *** p<0.0001 (C). Student's t-test was performed; ***p=0.0002 (D).
# 22Rv1 cells = test: BrdU incorporation, 22Rv1; assay type: cell-based; details: 22Rv1, 48 hrs
# Experimental: as §3
compound,measurement,setting,value
"Cc1cccc(N2CCN(C(=O)CSCc3c(C)noc3C)CC2)c1C [SID 3712502, 2-[(3,5-dimethyl-1,2-oxazol-4-yl)methylsulfanyl]-1-[4-(2,3-dimethylphenyl)piperazin-1-yl]ethanone]",cytotoxicity,PC3 cells,little or no cytotoxicity
same,cytotoxicity to various cultured cells,[1],little or no cytotoxicity
same,growth of 22Rv1 xenograft tumor,[2],significantly inhibited the growth
same,transactivation activity of full-length AR (PSA-luciferase),[3],can inhibit the transactivation activity
same,AR-target gene PSA expression,"PSA; 2 uM, 48 h, C4-2 and 22Rv1 cells",significantly inhibited
same,PSA expression,"PSA; LNCaP cells, 48 hrs",Down-regulation
same,transactivation activity of AR(1-665) (PSA-luciferase),AR(1-665),can inhibit the transactivation activity
same,proliferation (BrdU incorporation),C4-2 cells,inhibited the proliferation
same,AR protein levels,"AR; 10-50 uM, 48 h, C4-2 and 22Rv1 cells",inhibited AR protein levels
same,endogenous AR level (degradation),AR; C4-2 cells,can cause degradation of endogenous AR
same,endogenous AR level (degradation),AR; LNCaP cells,can cause degradation of endogenous AR
same,proliferation (BrdU incorporation),22Rv1 cells,inhibited the proliferation
